Test results: BindingDB's records for doi:10.1021/jm800739m (University of Southern California, 2009)

Target: DNA-(apurinic or apyrimidinic site) endonuclease (Homo sapiens, UniProt P27695)
Test: APE1 Inhibition Assay
Details: pH 7.5; 30 °C
Description: To determine the extent of abasic residue cleavage by APE1, recombinant APE1 was preincubated with the potential inhibitors in reaction buffer. Then, the 5-end 32P-labeled oligonucleotide substrate was added. The conversion of incision product was quantitated using PhosphorImager / ImageQuant 5.2 system. The IC50 values were determined by plotting the logarithm of drug concentration against percent inhibition of enzymatic activity. The optimum concentration of APE1 protein in the assay is the concentration at which there is complete conversion of the abasic-site containing oligonucleotide substrate to its cleaved product without subsequent exonuclease activity.

Chain of DNA-(apurinic or apyrimidinic site) endonuclease (P27695 whole entry): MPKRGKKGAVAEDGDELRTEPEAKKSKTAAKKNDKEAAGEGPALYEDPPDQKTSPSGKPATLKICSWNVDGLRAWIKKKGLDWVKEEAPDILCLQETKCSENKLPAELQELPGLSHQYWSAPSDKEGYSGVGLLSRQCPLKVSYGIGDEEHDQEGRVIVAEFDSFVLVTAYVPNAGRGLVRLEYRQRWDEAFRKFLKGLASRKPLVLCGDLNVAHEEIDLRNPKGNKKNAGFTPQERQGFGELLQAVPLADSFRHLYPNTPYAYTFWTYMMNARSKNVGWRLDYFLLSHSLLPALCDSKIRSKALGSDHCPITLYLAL

IC50: 4 µM
SMILES: O=C(O)c1ccc(Sc2ccc(S(=O)(=O)c3ccc(C(=O)O)c(C(=O)O)c3)cc2)cc1 [4-({4-[(4-carboxyphenyl)sulfanyl]benzene}sulfonyl)benzene-1,2-dicarboxylic acid]
